Assay results published in patent US10647690B2, “2,3-epoxy succinyl derivative, preparation method and use thereof” (Institute of Pharmacology and Toxicology Academy of …, priority 2016, dated 2020).
Where two headings read alike, the source gives them in different places.

Key:
Cathepsin L = target: T1, Cathepsin L (Homo sapiens, UniProt P07711); assay: IC50 determination against Cathepsin L (Biovision kit K161-100); format: biochemical; settings: CTSL
T1 construct: purchased Biovision K161-100
Procedure: (§1) 2. Method for determining IC50 of compounds against cathepsin:
IC50 of compounds against Cathepsin L was determined by using Cathepsin L Inhibitor Screening Kit (Product No. K161-100) from Biovision Company;
2.1.1.3 Preparation of Cathepsin L solution: Cathepsin L reagent (3 μl) was added to Cathepsin L enzyme (3 μl), mixed well, and on standing for 1 h, to get 1 mU/μl Cathepsin L enzyme solution. Cathepsin L buffer (24 μl) was added to 1 mU/μl cathepsin L enzyme solution (6 μl), to get 0.2 mU/μl Cathepsin L enzyme solution. 0.2 mU/μl cathepsin L enzyme (23 μl), and DTT (46 μl) were added to Cathepsin L buffer (2231 μl), and mixed well, to prepare Cathepsin L enzyme solution with a volume of 2.3 ml, which was placed on ice for further use.
(§2) 2.1.2 Preparation of compound solutions: 30 mM and 10 mM compound stock solutions, and control compounds were gradiently diluted in DMSO at a ratio of 1:3, wherein the maximum dilution fold was 19683; the gradiently diluted compound solution (3 μl) was added to Cathepsin K, B, L, and S buffer (27 μl), respectively, and mixed well, wherein the control compounds (FF-FMK, F-F-FMK, FF-FMK and Z-FF-FMK) were at the concentrations of 66.67, 22.22, 7.41, 2.47, 0.82, 0.27, 0.091, 0.03, 0.01, 0.0034 and 0 μM, respectively, the test compounds were at the concentrations of 1000, 333.3, 111.1, 37, 12.3, 4.1, 1.4, 0.46, 0.15, 0.05 and 0 μM, respectively, and the final concentration of DMSO was 10%.
2.1.3.3 Cathepsin L: Cathepsin L substrate (45 μl) was added to Cathepsin L buffer (1755 μl), and mixed well, to prepare Cathepsin L substrate solution with a volume of 1.8 ml, which was placed on ice for further use.
(§3) Method for screening cathepsin inhibitors: the cathepsin solution (prepared in Item 2.1.1) was added to a 384-well plate (ProxiPlate-384 Plus, Perkinelmer) at 10 μl/well, and centrifuged at 1000 rpm for Imin; the compound solution (prepared in Item 2.1.2) was then added at 2 μl/well, and every concentration was repeated in two wells; the final concentrations of the test compounds were 100, 33.3, 11.1, 3.7, 1.23, 0.41, 0.14, 0.046, 0.015, 0.005 and 0 μM, respectively, wherein the final concentration of DMSO was 1%; after centrifugation at 1000 rpm for 1 min, the plate was put in a 25° C. incubator for 15 min; the cathepsin substrate solution was then added at 8 µl/well, and centrifuged at 1000 rpm for 1 min; and finally, the fluorescence signal was read in Enspire, wherein the exciting light was at a wavelength of 400 nm, the emitting light was at a wavelength of 505 nm, and continuous reading was performed at 37° C. for 120 min.
(§4) Data analysis: the slope (S) for all the samples was calculated by ΔRFU(RFU2−RFU1) and time ΔT(T2−T1), including negative control (Enzyme Control, EC) and positive control (Inhibitor Control, IC: 10 μM (FF-FMK, F-F-FMK, FF-FMK and Z-FF-FMK), and the calculation formula was as followed: Relative inhibition rate %=(SEC−SS)/(SEC−SIC)*100. The IC50 for each compound was obtained by means of fitting by software GraphPad Prism 5.0.

Cathepsin B = target: T2, Cathepsin B (Homo sapiens, UniProt P07858); assay: IC50 determination against Cathepsin B (Biovision kit K147-100); format: biochemical; settings: for Selectiviy vs Cathepsin K (fold): selectivity for Cathepsin B over Cathepsin K; for Selectiviy vs Cathepsin L (fold): selectivity for Cathepsin B over Cathepsin L; for Selectiviy vs Cathepsin S (fold): selectivity for Cathepsin B over Cathepsin S; for selectivity for Cathepsin B: statement in words, versus Cathepsin K, L, S
T2 construct: purchased Biovision K147-100
Procedure: as §1
IC50 of compounds against Cathepsin B was determined by using Cathepsin B Inhibitor Screening Kit (Product No. K147-100) from Biovision Company;
2.1.1.2 Preparation of Cathepsin B solution: Cathepsin B enzyme (23 μl) and Cathepsin B reagent (46 μl) were added to Cathepsin B buffer (2231 μl), and mixed well, to prepare Cathepsin B enzyme solution with a volume of 2.3 ml, which was placed on ice for further use.
as §2
2.1.3.2 Cathepsin B: Cathepsin B substrate (90 μl) was added to Cathepsin B buffer (1710 μl), and mixed well, to prepare Cathepsin B substrate solution with a volume of 1.8 ml, which was placed on ice for further use.
as §3, §4

[1] = Exp-1, read-out: IC50 (nM) Exp-1
[2] = Exp-2, read-out: IC50 (nM) Exp-2
[3] = average of Exp-1 and Exp-2, read-out: Ave of IC50
[4] = CTSB, Exp-1, read-out: IC50 (nM) Exp-1
[5] = CTSB, Exp-2, read-out: IC50 (nM) Exp-2
[6] = CTSB, average of Exp-1 and Exp-2, read-out: Ave of IC50
[7] = Table 3, average ± STDEV, read-out: Cathepsin B IC50

T1 sequence (P07711 114-333): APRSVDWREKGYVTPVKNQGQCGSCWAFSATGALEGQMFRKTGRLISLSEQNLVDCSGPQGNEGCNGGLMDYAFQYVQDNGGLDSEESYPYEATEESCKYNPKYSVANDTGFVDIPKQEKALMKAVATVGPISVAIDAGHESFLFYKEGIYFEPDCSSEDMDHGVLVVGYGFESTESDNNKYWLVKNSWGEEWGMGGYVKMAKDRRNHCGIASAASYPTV

Row | IC50 (Cathepsin L; [1]) [nM] | IC50 (Cathepsin L; [2]) [nM] | IC50 (Cathepsin L; [3]) [nM] | IC50 (Cathepsin B; [4]) [nM] | IC50 (Cathepsin B; [5]) [nM] | IC50 (Cathepsin B; [6]) [nM] | IC50 (Cathepsin B; [7]) [nM] | Selectiviy vs Cathepsin K (fold) (Cathepsin B) | Selectiviy vs Cathepsin L (fold) (Cathepsin B) | Selectiviy vs Cathepsin S (fold) (Cathepsin B) | selectivity for Cathepsin B (Cathepsin B) | SMILES
1 | 2270 | 2330 | 2300 | 7.19 | 9.33 | 8.27 | 8.27 ± 1.51 | 181 | 278 | 497 | strong selectivity for Cathepsin B | CCCCCCNC(=O)[C@H](CCSC)NC(=O)[C@H]1O[C@@H]1C(=O)OCC [Compound 5, (2s, 3s)-2-ethoxycarbonyl-3-[2-[(s)-4-methylthio-1-carbonyl-1-(hexylamino)butane]formylamino]epoxysuccinic acid]
2 | 3610 | 4450 | 4030 | 17.6 | 20.7 | 19.2 | 19.2 ± 2.26 | 116 | 210 | 524 | strong selectivity for Cathepsin B | CCOC(=O)[C@H]1O[C@@H]1C(=O)N[C@@H](CCSC)C(=O)NCCCc1ccccc1 [Compound 8, (2s, 3s)-2-ethoxycarbonyl-3-[2-[(s)-4-methylthio-1-carbonyl-1-(3-phenylpropylamino)butane]formylamino]epoxysuccinic acid]
3 | 5880 | 6630 | 6250 | 3.76 | 4.64 | 4.2 | 4.2 ± 0.63 | 40 | 1563 | 357 | strong selectivity for Cathepsin B | CCOC(=O)[C@H]1O[C@@H]1C(=O)N[C@@H](CCSC)C(=O)N1CCC(c2ccccc2)CC1 [Compound 13, (2s, 3s)-2-ethoxycarbonyl-3-[2-[(s)-4-methylthio-1-carbonyl-1-(phenylpiperidinyl)butane]formylamino]epoxysuccinic acid]
4 | 338 | 382 | 360 | 22.3 | 25.9 | 24.1 | 24.1 ± 2.59 | 21 |  | 167 | strong selectivity for Cathepsin B | CCOC(=O)[C@H]1O[C@@H]1C(=O)N[C@@H](CCSC)C(=O)NCCc1cccc(F)c1 [Compound 34, (2s, 3s)-2-ethoxycarbonyl-3-[2-[(s)-4-methylthio-1-carbonyl-1-(3-fluorophenylethylamino)butane]formylamino]epoxysuccinic acid]
5 | 9250 | 9950 | 9600 | 68.5 | 80 | 74.3 | 74.3 ± 8.18 | 22 | 129 | 193 | strong selectivity for Cathepsin B | CCOC(=O)[C@H]1O[C@@H]1C(=O)N[C@@H](CCSC)C(=O)NC(CC)CC [Compound 39, (2s, 3s)-2-ethoxycarbonyl-3-[2-[(s)-4-methylthio-1-carbonyl-1-(1-ethylpropylamino)butane]formylamino]epoxysuccinic acid]
6 | 4160 | 4610 | 4390 | 20.3 | 27.1 | 23.7 | 23.7 ± 4.78 | 28 | 185 | 149 | strong selectivity for Cathepsin B | CCOC(=O)[C@H]1O[C@@H]1C(=O)N[C@@H](CCSC)C(=O)NCCCCc1ccccc1 [Compound 40, (2s, 3s)-2-ethoxycarbonyl-3-[2-[(s)-4-methylthio-1-carbonyl-1-(4-phenylbutylamino)butane]formylamino]epoxysuccinic acid]
7 | 171 | 180 | 175 | 10.6 | 13.5 | 12 | 12 ± 2.03 | 39 | 15 | 55 |  | CCOC(=O)[C@H]1O[C@@H]1C(=O)N[C@@H](CC(C)C)C(=O)NCCC(C)C [zxy-37, E64d, reference compound]
